Experimental data published in US20240335385A1, “IONIZABLE AMINE LIPIDS AND LIPID NANOPARTICLES” (Beam Therapeutics Inc., priority 2021, published 2024).

What was measured:
[1] = LNP hydrodynamic diameter and polydispersity index by dynamic light scattering (DLS); assay type: physicochemical; conditions: LNP of 47.5% Ionizable Lipid:40% cholesterol:2.5% PEG-2000 DMG:10% DPSC, N/P ratio 4-8
Experimental: (§1) LNPs were prepared with 47.5% Ionizable Lipid (e.g., a compound provided herein):40% cholesterol:2.5% PEG-2000 DMG:10% DPSC and an N/P ratio range of 4-8. LNPs were formed by microfluidic mixing of the lipid and NA solutions using a Precision Nanosystems NanoAssemblr Spark or Benchtop series Instruments, according to the manufacturer's protocol. A ratio of aqueous to organic solvent of approximately 2:1 or 3:1 was maintained during mixing using differential flow rates. After mixing, LNPs were collected, diluted in phosphate buffer saline (PBS) or Tris-buffered saline (TBS) (approximately 1:1 v/v). Further buffer exchange was conducted using dialysis in PBS or TBS at 4° C. for 4 to 24 hours against a 20 kDa filter. After this initial dialysis, each individual LNP preparation was characterized via dynamic light scattering (DLS) to measure the size (e.g., diameter) and polydispersity. LNPs falling within specific diameter and polydispersity ranges were pooled, and further dialyzed against PBS or TBS at 4° C. for 1 to 4 hours against a 100 kDa dialysis cassette. After the second dialysis, LNPs were sterile filtered using 0.22 μm filter and stored at 4° C. for further use.
LNP hydrodynamic diameter and polydispersity index (PDI) were measured using high throughput dynamic light scattering (DLS) (Stunner, Unchained Labs). LNPs were diluted 1×TBS or PBS to an appropriate concentration and analyzed.

[2] = RNA encapsulation efficiency of LNPs by Ribogreen assay; assay type: physicochemical; conditions: LNP of 47.5% Ionizable Lipid:40% cholesterol:2.5% PEG-2000 DMG:10% DPSC, N/P ratio 4-8
Experimental: as §1
RNA concentration and encapsulation efficiency were determined by Ribogreen assay (BioTek Synergy LX plate reader).

lung = assay: LNP biodistribution screen, barcode fold above input (FAI) in lung; assay type: in vivo; conditions: mice, tissues 4 hours post-dose
Experimental: (§2) Male and female mice aged approximately 8-12 weeks were used for studies described by the present Example. Each mouse was temporarily restrained and pooled LNP was administered IV via tail vein injection in up to five animals per experiment. Age-matched mice was also used to administer vehicle (1×TBS) via tail vein injection in up to three animals per experiment. Additional routes of administration can also be conducted including intracerebral ventricular (ICV), intracisterna manga (ICM), intrathecal (IT), intramuscular (IM), nebulization, intranasal (IN), subcutaneous (SC), intraarticular, and intradermal (ID). At 4 hours post-dose, tissues including liver, spleen, bone marrow, testes, gastrocnemius, quadricep, lung, heart, kidney, and pancreas may be collected for analysis.
(§3) Liver, kidney, lung, and muscle (e.g. skeletal and cardiac) tissues may be mechanically, and then enzymatically digested using a mixture of proteinases, then passed through a 70 μm filter to generate single cell suspensions. Spleen tissues were mechanically digested to generate single cell suspensions. Tissues were treated with ACK buffer to lyse red blood cells, and then stained with fluorescently-labeled antibodies for flow cytometry and fluorescence-activated cell sorting (FACS). Commercially available antibodies were used in the present example. Using a BD FACSMelody (Becton Dickinson), samples were acquired via flow cytometry to generate gates prior to sorting. In general, the gating structure was size→singlet cells→live cells→cells of interest. T cells were defined as CD45+CD3+, monocytes are defined as CD45+CD11b+, and B cells are defined as CD45+CD19+. Endothelial cells were defined as CD31+, monocytes and Kupffer cells as CD45+CD11b+ and hepatocytes and myocytes were defined as CD31−/CD45− in the liver and muscle, respectively. Tissues from vehicle-dosed mice were used to set the gates for sorting.
(§4) RNA from tissues were extracted using the Reliaprep RNA extraction kit, and libraries were prepared using the RNAseq kit, and sequenced on either a MiSeq or NextSeq500.
(§5) To screen for preferential LNP delivery to a target tissues, the relative abundance of each barcode in one or more target tissues was measured and compared to the relative abundance of each barcode to its corresponding relative input abundance to determine fold above input (FAI) for each barcode. If the FAI of a barcode in a target tissue is above a threshold or above the FAI of a different LNP in the same tissue, the LNP can be identified as preferentially delivering to the target tissue.
(§6) The FAI is the normalized relative abundance of a barcode in a selected sample as compared to its frequency in the input. The FAI of a barcode indicates how a LNP's abundance changes relative to the rest of the LNP pool. The FAI value of the barcode was calculated by normalizing the relative abundance in the barcode sequence counts in the isolated samples to its relative abundance in the administration input. […] The FAI then indicates the performance of an LNP relative to the input LNP composition.
(§7) Each table describes data obtained from one screening experiment.

spleen = assay: LNP biodistribution screen, barcode fold above input (FAI) in spleen; assay type: in vivo; conditions: mice, tissues 4 hours post-dose
Experimental: as §2, §3, §4, §5, §6, §7

liver = assay: LNP biodistribution screen, barcode fold above input (FAI) in liver; assay type: in vivo; conditions: mice, tissues 4 hours post-dose
Experimental: as §2
Liver, kidney, lung, and muscle (e.g. skeletal and cardiac) tissues may be mechanically, and then enzymatically digested using a mixture of proteinases, then passed through a 70 μm filter to generate single cell suspensions. Spleen tissues were mechanically digested to generate single cell suspensions. Tissues were treated with ACK buffer to lyse red blood cells, and then stained with fluorescently-labeled antibodies for flow cytometry and fluorescence-activated cell sorting (FACS). Commercially available antibodies were used in the present example. Using a BD FACSMelody (Becton Dickinson), samples were acquired via flow cytometry to generate gates prior to sorting. […]
To screen for preferential LNP delivery to a target tissues, the relative abundance of each barcode in one or more target tissues was measured and compared to the relative abundance of each barcode to its corresponding relative input abundance to determine fold above input (FAI) for each barcode. […]
The FAI is the normalized relative abundance of a barcode in a selected sample as compared to its frequency in the input. […] The FAI value of the barcode was calculated by normalizing the relative abundance in the barcode sequence counts in the isolated samples to its relative abundance in the administration input. […]

[3] = screening experiment of Table 3, pooled LNP IV tail vein
[4] = screening experiment of Table 5, pooled LNP IV tail vein
[5] = screening experiment of Table 4, pooled LNP IV tail vein

5-((4,4-bis(((Z)-oct-5-en-1-yl)oxy)butanoyl)oxy)-3-((4-(pyrrolidin-1-yl)butanoyl)oxy)pentyl (9Z,12Z)-octadeca-9,12-dienoate [Example 7-5]
Mean Diameter (nm) [1]: 93.1 nm | Mean PDI [1]: 0.13 | Mean Encapsulation Efficiency (%) [2]: 86.8% | FAI (Lung) (lung; [3]): 1.30 | FAI (Lung) (lung; [4]): 0.83 | FAI (Spleen) (spleen; [3]): 1.29 | FAI (Spleen) (spleen; [4]): 1.33 | FAI (Liver) (liver; [3]): 2.28

CC/C=C\CCCCOC(CCC(=O)OCCC(CCOC(=O)CCCCCCC/C=C\C/C=C\CCCCC)OC(=O)OCCCN(CC)CC)OCCCC/C=C\CC (stereo not shown) [Example 7-2, 5-((4,4-bis(((Z)-oct-5-en-1-yl)oxy)butanoyl)oxy)-3-(((3-(diethylamino)propoxy)carbonyl)oxy)pentyl (9Z,12Z)-octadeca-9,12-dienoate]
Mean Diameter (nm) [1]: 96.4 nm | Mean PDI [1]: 0.12 | Mean Encapsulation Efficiency (%) [2]: 87.2%

CC/C=C\CCCCOC(CCC(=O)OCCC(CCOC(=O)CCCCCCC/C=C\C/C=C\CCCCC)OC(=O)OCCCN(C)CC)OCCCC/C=C\CC (stereo not shown) [Example 7-3, 5-((4,4-bis(((Z)-oct-5-en-1-yl)oxy)butanoyl)oxy)-3-(((3-(ethyl(methyl)amino)propoxy)carbonyl)oxy)pentyl (9Z,12Z)-octadeca-9,12-dienoate]
Mean Diameter (nm) [1]: 91.0 nm | Mean PDI [1]: 0.13 | Mean Encapsulation Efficiency (%) [2]: 86.7%

CC/C=C\CCCCOC(CCC(=O)OCCC(CCOC(=O)CCCCCCC/C=C\C/C=C\CCCCC)OC(=O)OCCCN(C)C)OCCCC/C=C\CC (stereo not shown) [Example 7-4, 5-((4,4-bis(((Z)-oct-5-en-1-yl)oxy)butanoyl)oxy)-3-(((3-(dimethylamino)propoxy)carbonyl)oxy)pentyl (9Z,12Z)-octadeca-9,12-dienoate]
Mean Diameter (nm) [1]: 88.8 nm | Mean PDI [1]: 0.13 | Mean Encapsulation Efficiency (%) [2]: 86.3%

CC/C=C\CCCCOC(CCC(=O)OCCC(CCOC(=O)CCC(OCCCC/C=C\CC)OCCCC/C=C\CC)OC(=O)OCCCN(CC)CC)OCCCC/C=C\CC [Example 7-7, 3-(((3-(diethylamino)propoxy)carbonyl)oxy)pentane-1,5-diyl bis(4,4-bis(((Z)-oct-5-en-1-yl)oxy)butanoate)]
Mean Diameter (nm) [1]: 99.7 nm | Mean PDI [1]: 0.17 | Mean Encapsulation Efficiency (%) [2]: 91.3%

CC/C=C\CCCCOC(CCC(=O)OCCC(CCOC(=O)CCC(OCCCC/C=C\CC)OCCCC/C=C\CC)OC(=O)OCCCN(C)CC)OCCCC/C=C\CC [Example 7-8, 3-(((3-(ethyl(methyl)amino)propoxy)carbonyl)oxy)pentane-1,5-diyl bis(4,4-bis(((Z)-oct-5-en-1-yl)oxy)butanoate)]
Mean Diameter (nm) [1]: 110.4 nm | Mean PDI [1]: 0.09 | Mean Encapsulation Efficiency (%) [2]: 89.9%

CC/C=C\CCCCOC(CCC(=O)OCCC(CCOC(=O)CCC(OCCCC/C=C\CC)OCCCC/C=C\CC)OC(=O)OCCCN(C)C)OCCCC/C=C\CC [Example 7-9, 3-(((3-(dimethylamino)propoxy)carbonyl)oxy)pentane-1,5-diyl bis(4,4-bis(((Z)-oct-5-en-1-yl)oxy)butanoate)]
Mean Diameter (nm) [1]: 92.9 nm | Mean PDI [1]: 0.13 | Mean Encapsulation Efficiency (%) [2]: 89.0%

CCCCC/C=C\C/C=C\CCCCCCCC(=O)OCCC(CCOC(=O)CCC(OCCCCCCCC)OCCCCCCCC)OC(=O)OCC1CCCN(CC)C1 (stereo not shown) [Example 7-11, 5-((4,4-bis(octyloxy)butanoyl)oxy)-3-((((1-ethylpiperidin-3-yl)methoxy)carbonyl)oxy)pentyl (9Z,12Z)-octadeca-9,12-dienoate]
Mean Diameter (nm) [1]: 76.5 nm | Mean PDI [1]: 0.13 | Mean Encapsulation Efficiency (%) [2]: 86.3%

CCCCC/C=C\C/C=C\CCCCCCCC(=O)OCCC(CCOC(=O)CCC(OCCCCCCCC)OCCCCCCCC)OC(=O)OCCCN(CC)CC (stereo not shown) [Example 7-12, 5-((4,4-bis(octyloxy)butanoyl)oxy)-3-(((3-(diethylamino)propoxy)carbonyl)oxy)pentyl (9Z,12Z)-octadeca-9,12-dienoate]
Mean Diameter (nm) [1]: 85.0 nm | Mean PDI [1]: 0.16 | Mean Encapsulation Efficiency (%) [2]: 86.5%

CCCCC/C=C\C/C=C\CCCCCCCC(=O)OCCC(CCOC(=O)CCC(OCCCCCCCC)OCCCCCCCC)OC(=O)OCCCN(C)CC (stereo not shown) [Example 7-13, 5-((4,4-bis(octyloxy)butanoyl)oxy)-3-(((3-(ethyl(methyl)amino)propoxy)carbonyl)oxy)pentyl (9Z,12Z)-octadeca-9,12-dienoate]
Mean Diameter (nm) [1]: 86.0 nm | Mean PDI [1]: 0.15 | Mean Encapsulation Efficiency (%) [2]: 86.1%

CCCCC/C=C\C/C=C\CCCCCCCC(=O)OCCC(CCOC(=O)CCC(OCCCCCCCC)OCCCCCCCC)OC(=O)OCCCN(C)C (stereo not shown) [Example 7-14, 5-((4,4-bis(octyloxy)butanoyl)oxy)-3-(((3-(dimethylamino)propoxy)carbonyl)oxy)pentyl (9Z,12Z)-octadeca-9,12-dienoate]
Mean Diameter (nm) [1]: 84.3 nm | Mean PDI [1]: 0.18 | Mean Encapsulation Efficiency (%) [2]: 87.2%

CCCCC/C=C\C/C=C\CCCCCCCC(=O)OCCC(CCOC(=O)CCC(OCCCCCCCC)OCCCCCCCC)OC(=O)CCCN1CCCC1 (stereo not shown) [Example 7-15, 5-((4,4-bis(octyloxy)butanoyl)oxy)-3-((4-(pyrrolidin-1-yl)butanoyl)oxy)pentyl (9Z,12Z)-octadeca-9,12-dienoate]
Mean Diameter (nm) [1]: 80.8 nm | Mean PDI [1]: 0.16 | Mean Encapsulation Efficiency (%) [2]: 87.0%

CCCCCCCCOC(CCC(=O)OCCC(CCOC(=O)CCC(OCCCCCCCC)OCCCCCCCC)OC(=O)OCC1CCCN(CC)C1)OCCCCCCCC (stereo not shown) [Example 7-16, 3-((((1-ethylpiperidin-3-yl)methoxy)carbonyl)oxy)pentane-1,5-diyl bis(4,4-bis(octyloxy)butanoate)]
Mean Diameter (nm) [1]: 80.0 nm | Mean PDI [1]: 0.16 | Mean Encapsulation Efficiency (%) [2]: 72.6%

CCCCCCCCOC(CCC(=O)OCCC(CCOC(=O)CCC(OCCCCCCCC)OCCCCCCCC)OC(=O)OCCCN(C)CC)OCCCCCCCC [Example 7-18, 3-(((3-(ethyl(methyl)amino)propoxy)carbonyl)oxy)pentane-1,5-diyl bis(4,4-bis(octyloxy)butanoate)]
Mean Diameter (nm) [1]: 76.7 nm | Mean PDI [1]: 0.16 | Mean Encapsulation Efficiency (%) [2]: 90.0%

CC/C=C\CCCCOC(CCC(=O)OCCCCC(CCCCOC(=O)CCC(OCCCC/C=C\CC)OCCCC/C=C\CC)OC(=O)OCC1CCCN(CC)C1)OCCCC/C=C\CC (stereo not shown) [Example 7-34, 5-((((1-ethylpiperidin-3-yl)methoxy)carbonyl)oxy)nonane-1,9-diyl bis(4,4-bis(((Z)-oct-5-en-1-yl)oxy)butanoate)]
Mean Diameter (nm) [1]: 94.4 nm | Mean PDI [1]: 0.12 | Mean Encapsulation Efficiency (%) [2]: 85.1%

CCCCC/C=C\C/C=C\CCCCCCCCC(CCCCCCCC/C=C\C/C=C\CCCCC)OC(=O)CCCN(C)C [MC3, (6Z,9Z,28Z,31Z)-heptatriaconta-6,9,28,31-tetraen-19-yl 4-(dimethylamino) butanoate]
FAI (Lung) (lung; [3]): 1.09 | FAI (Lung) (lung; [5]): 0.65 | FAI (Lung) (lung; [4]): 0.50 | FAI (Spleen) (spleen; [3]): 1.32 | FAI (Spleen) (spleen; [5]): 0.45 | FAI (Spleen) (spleen; [4]): 0.39 | FAI (Liver) (liver; [3]): 0.80 | FAI (Liver) (liver; [5]): 0.31
